According to patent publication US10130693B2, “Peptides, combination of peptides and scaffolds for use in immunotherapeutic treatment of various cancers” (Immatics Biotechnologies GmbH, priority 2015, dated 2018):

Columns and labels:
CD8+ T cells = assay: In vitro immunogenicity: T-cell priming with aAPCs loaded with HLA-A*02 peptide/MHC and anti-CD28, multimer staining; format: cell-based, human; settings: HLA-A*02 peptides
Excerpt: In order to obtain information regarding the immunogenicity of the TUMAPs of the present invention, the inventors performed investigations using an in vitro T-cell priming assay based on repeated stimulations of CD8+ T cells with artificial antigen presenting cells (aAPCs) loaded with peptide/MHC complexes and anti-CD28 antibody.
In order to perform in vitro stimulations by artificial antigen presenting cells loaded with peptide-MHC complex (pMHC) and anti-CD28 antibody, the inventors first isolated CD8+ T cells from fresh HLA-A*02 leukapheresis products via positive selection using CD8 microbeads (Miltenyi Biotec, Bergisch-Gladbach, Germany) of healthy donors obtained from the University clinics Mannheim, Germany, after informed consent.
PBMCs and isolated CD8+ lymphocytes were incubated in T-cell medium (TCM) until use consisting of RPMI-Glutamax (Invitrogen, Karlsruhe, Germany) supplemented with 10% heat inactivated human AB serum (PAN-Biotech, Aidenbach, Germany), 100 U/ml Penicillin/100 μg/ml Streptomycin (Cambrex, Cologne, Germany), 1 mM sodium pyruvate (CC Pro, Oberdorla, Germany), 20 μg/ml Gentamycin (Cambrex). 2.5 ng/ml IL-7 (PromoCell, Heidelberg, Germany) and 10 U/ml IL-2 (Novartis Pharma, Nürnberg, Germany) were also added to the TCM at this step.
Generation of pMHC/anti-CD28 coated beads, T-cell stimulations and readout was performed in a highly defined in vitro system using four different pMHC molecules per stimulation condition and 8 different pMHC molecules per readout condition.
The purified co-stimulatory mouse IgG2a anti human CD28 Ab 9.3 (Jung et al., 1987) was chemically biotinylated using Sulfo-N-hydroxysuccinimidobiotin as recommended by the manufacturer (Perbio, Bonn, Germany). Beads used were 5.6 μm diameter streptavidin coated polystyrene particles (Bangs Laboratories, Illinois, USA).
pMHC used for positive and negative control stimulations were A*0201/MLA-001 (peptide […] (SEQ ID NO. 418) from modified Melan-A/MART-1) and A*0201/DDX5-001 ([…] from DDX5, SEQ ID NO. 419), respectively.
800.000 beads/200 μl were coated in 96-well plates in the presence of 4×12.5 ng different biotin-pMHC, washed and 600 ng biotin anti-CD28 were added subsequently in a volume of 200 μl. Stimulations were initiated in 96-well plates by co-incubating 1×10^6 CD8+ T cells with 2×10^5 washed coated beads in 200 μl TCM supplemented with 5 ng/ml IL-12 (PromoCell) for 3 days at 37° C. Half of the medium was then exchanged by fresh TCM supplemented with 80 U/ml IL-2 and incubating was continued for 4 days at 37° C. This stimulation cycle was performed for a total of three times. For the pMHC multimer readout using 8 different pMHC molecules per condition, a two-dimensional combinatorial coding approach was used as previously described (Andersen et al., 2012) with minor modifications encompassing coupling to 5 different fluorochromes. Finally, multimeric analyses were performed by staining the cells with Live/dead near IR dye (Invitrogen, Karlsruhe, Germany), CD8-FITC antibody clone SK1 (BD, Heidelberg, Germany) and fluorescent pMHC multimers. For analysis, a BD LSRII SORP cytometer equipped with appropriate lasers and filters was used. Peptide specific cells were calculated as percentage of total CD8+ cells. Evaluation of multimeric analysis was done using the FlowJo software (Tree Star, Oregon, USA). In vitro priming of specific multimer+CD8+ lymphocytes was detected by comparing to negative control stimulations.

HLA-A*02:01 = HLA-A*02:01 (Homo sapiens, UniProt P04439, D140Y/D185E/D98H/E176V/E277Q/G131W/G231S/I119V/I121R/I166T/I218V/L300P/L318F/N151K/N90K/P208A/P217A/Q86G/Q94H/R138H/R169H/T345S); assay: MHC binding assay, UV-ligand exchange with beta2m ELISA (exchange yield), HLA-A*02; settings: binding to HLA-A*02 ranged by peptide exchange yield
Excerpt: Candidate peptides for T cell based therapies according to the present invention were further tested for their MHC binding capacity (affinity). The individual peptide-MHC complexes were produced by UV-ligand exchange, where a UV-sensitive peptide is cleaved upon UV-irradiation, and exchanged with the peptide of interest as analyzed. Only peptide candidates that can effectively bind and stabilize the peptide-receptive MHC molecules prevent dissociation of the MHC complexes. To determine the yield of the exchange reaction, an ELISA was performed based on the detection of the light chain (β2m) of stabilized MHC complexes. The assay was performed as generally described in Rodenko et al. (Rodenko et al., 2006).
96 well MAXISorp plates (NUNC) were coated over night with 2 ug/ml streptavidin in PBS at room temperature, washed 4× and blocked for 1 h at 37° C. in 2% BSA containing blocking buffer. […] Peptide-MHC monomers of the UV-exchange reaction were diluted 100 fold in blocking buffer. Samples were incubated for 1 h at 37° C., washed four times, incubated with 2 ug/ml HRP conjugated anti-β2m for 1h at 37° C., washed again and detected with TMB solution that is stopped with […]. Absorption was measured at 450 nm. Candidate peptides that show a high exchange yield (preferably higher than 50%, most preferred higher than 75%) are generally preferred for a generation and production of antibodies or fragments thereof, and/or T cell receptors or fragments thereof, as they show sufficient avidity to the MHC molecules and prevent dissociation of the MHC complexes.

Peptide exchange (MHC class I binding score) (HLA-A*02:01)	Substance	in vitro immunogenicity, Wells positive [%] (CD8+ T cells)
+++ (50%-75% = +++)	331 (AIWKELISL; listed as Homo sapiens) [compound 331]	++ (20%-49% = ++)
+++ (50%-75% = +++)	8 (KLGPFLLNA; listed as Homo sapiens) [compound 8]	+++ (50%-69% = +++)
+++ (50%-75% = +++)	17 (ILHEHHIFL; listed as Homo sapiens) [compound 17]	+ (<20% = +)
+++ (50%-75% = +++)	322 (ALVSGGVAQA; listed as Homo sapiens) [compound 322]	+ (<20% = +)
+++ (50%-75% = +++)	2 (ALYGKLLKL; listed as Homo sapiens) [compound 2]	++++ (>=70% = ++++)
++ (20%-49% = ++)	9 (FLGDYVENL; listed as Homo sapiens) [compound 9]	+ (<20% = +)
+++ (50%-75% = +++)	7 (AAAAKVPEV; listed as Homo sapiens) [compound 7]	+ (<20% = +)
+++ (50%-75% = +++)	43 (LLWAGPVTA; listed as Homo sapiens) [compound 43]	++++ (>=70% = ++++)
